Earlier results, collected in patent US10590381B2, “Composition for collecting and preserving placental stem cells and methods of using the composition” (Celularity, Inc., priority 2005, dated 2020).

Experiments:
[1] = for hygroscopicity: solid polymorphic form; for conversion at higher relative humidities: stressed at higher relative humidities
[2] = Form A: among anhydrous polymorphs; Form E: in aqueous solvent systems
[3] = Form E: about 125° C. for about five minutes; Form B: 175° C. for about five minutes

SMILES	hygroscopicity [1]	conversion upon heating [3]	relative stability among polymorphs [2]	conversion at higher relative humidities [1]
Nc1cccc2c1CN(C1CCC(=O)NC1=O)C2=O (centres unmarked) [Form A, 3-(4-amino-1-oxo-1,3 dihydro-isoindol-2-yl)-piperidene-2,6-dione]	weakly or not hygroscopic	–	most thermodynamically stable anhydrous polymorph	–
Nc1cccc2c1CN(C1CCC(=O)NC1=O)C2=O (centres unmarked) [Form B, 3-(4-amino-1-oxo-1,3 dihydro-isoindol-2-yl)-piperidene-2,6-dione]	–	can convert to Form F	–	–

The next lines start with results.

hygroscopicity [1]	conversion upon heating [3]	SMILES	relative stability among polymorphs [2]	conversion at higher relative humidities [1]
not hygroscopic below about 85% RH	–	Nc1cccc2c1CN(C1CCC(=O)NC1=O)C2=O (centres unmarked) [Form C, 3-(4-amino-1-oxo-1,3 dihydro-isoindol-2-yl)-piperidene-2,6-dione]	–	can convert to Form B at higher relative humidities
either weakly or not hygroscopic	–	Nc1cccc2c1CN(C1CCC(=O)NC1=O)C2=O (centres unmarked) [Form D, 3-(4-amino-1-oxo-1,3 dihydro-isoindol-2-yl)-piperidene-2,6-dione]	–	will typically convert to Form B
–	can convert to Form B	Nc1cccc2c1CN(C1CCC(=O)NC1=O)C2=O (centres unmarked) [Form E, 3-(4-amino-1-oxo-1,3 dihydro-isoindol-2-yl)-piperidene-2,6-dione]	–	–
